Laboratory results from PubChem BioAssay AID1259407 (Chemical Carcinogenesis Research Information System (CCRIS), 2018).
Activity calls are given as the source filed them. The rule behind the calls is not given here.

Tested on: CCRIS mutagenicity, Ames/micronucleus/aberration tests
Assay: CCRIS mutagenicity studies
[1] = Test System: AMES SALMONELLA TYPHIMURIUM, Strain/Indicator: TA98, Metabolic Activation: RAT, LIVER, S-9, AROCLOR 1254, Method: STANDARD PLATE
[2] = Test System: AMES SALMONELLA TYPHIMURIUM, Strain/Indicator: TA100, Metabolic Activation: RAT, LIVER, S-9, AROCLOR 1254, Method: STANDARD PLATE
[3] = Test System: AMES SALMONELLA TYPHIMURIUM, Strain/Indicator: TA1535, Metabolic Activation: RAT, LIVER, S-9, AROCLOR 1254, Method: STANDARD PLATE
[4] = Test System: AMES SALMONELLA TYPHIMURIUM, Strain/Indicator: TA1538, Metabolic Activation: RAT, LIVER, S-9, AROCLOR 1254, Method: STANDARD PLATE
[5] = Test System: AMES SALMONELLA TYPHIMURIUM, Strain/Indicator: TA98, Metabolic Activation: NONE, Method: STANDARD PLATE
[6] = Test System: AMES SALMONELLA TYPHIMURIUM, Strain/Indicator: TA100, Metabolic Activation: NONE, Method: STANDARD PLATE
[7] = Test System: AMES SALMONELLA TYPHIMURIUM, Strain/Indicator: TA98, Metabolic Activation: NONE, Method: PREINCUBATION

## O=C(COc1ccc(Cl)cc1Cl)N[C@@H](Cc1c[nH]c2ccccc12)C(=O)O
Test System: AMES SALMONELLA TYPHIMURIUM, Strain/Indicator: TA97, Metabolic Activation: RAT, LIVER, S-9, AROCLOR 1254, Method: STANDARD PLATE
  mutagenic call: inactive; negative
Test System: AMES SALMONELLA TYPHIMURIUM, Strain/Indicator: TA97, Metabolic Activation: WOODCHUCK, LIVER, S-9, 3-METHYLCHOLANTHRENE, Method: STANDARD PLATE
  mutagenic call: inactive; negative
[1]
  mutagenic call: inactive; negative
Test System: AMES SALMONELLA TYPHIMURIUM, Strain/Indicator: TA98, Metabolic Activation: WOODCHUCK, LIVER, S-9, 3-METHYLCHOLANTHRENE, Method: STANDARD PLATE
  mutagenic call: inactive; negative
[2]
  mutagenic call: inactive; negative
Test System: AMES SALMONELLA TYPHIMURIUM, Strain/Indicator: TA100, Metabolic Activation: WOODCHUCK, LIVER, S-9, 3-METHYLCHOLANTHRENE, Method: STANDARD PLATE
  mutagenic call: inactive; negative
[3]
  mutagenic call: inactive; negative
Test System: AMES SALMONELLA TYPHIMURIUM, Strain/Indicator: TA1535, Metabolic Activation: WOODCHUCK, LIVER, S-9, 3-METHYLCHOLANTHRENE, Method: STANDARD PLATE
  mutagenic call: inactive; negative
[4]
  mutagenic call: inactive; negative
Test System: AMES SALMONELLA TYPHIMURIUM, Strain/Indicator: TA1538, Metabolic Activation: WOODCHUCK, LIVER, S-9, 3-METHYLCHOLANTHRENE, Method: STANDARD PLATE
  mutagenic call: inactive; negative

## CC(=O)Nc1nc(-c2ccc([N+](=O)[O-])o2)cs1
Test System: AMES SALMONELLA TYPHIMURIUM, Strain/Indicator: TA100, Metabolic Activation: RAT, LIVER, S-9, KC500 OR PHENOBARBITAL, Method: LIQUID SUSPENSION
  mutagenic call: active; positive
Test System: E. COLI WP2, Strain/Indicator: WP2, Metabolic Activation: NONE, Method: SPOT
  mutagenic call: active; positive

## CC1=C(/C=C/C(C)=C/C=C/C(C)=C/C=C/C=C(C)/C=C/C=C(C)/C=C/C2=C(C)C(=O)CCC2(C)C)C(C)(C)CCC1=O
[5]
  mutagenic call: inactive; negative
[1]
  mutagenic call: inactive; negative
[6]
  mutagenic call: inactive; negative
[2]
  mutagenic call: inactive; negative

## C=CCNC(N)=S
Test System: AMES SALMONELLA TYPHIMURIUM, Strain/Indicator: TA97, Metabolic Activation: HAMSTER, LIVER, S-9, AROCLOR 1254 (10 OR 30%), Method: PREINCUBATION
  mutagenic call: inactive; negative
Test System: AMES SALMONELLA TYPHIMURIUM, Strain/Indicator: TA97, Metabolic Activation: NONE, Method: PREINCUBATION
  mutagenic call: inactive; negative
Test System: AMES SALMONELLA TYPHIMURIUM, Strain/Indicator: TA97, Metabolic Activation: RAT, LIVER, S-9, AROCLOR 1254 (10 OR 30%), Method: PREINCUBATION
  mutagenic call: inactive; negative
Test System: AMES SALMONELLA TYPHIMURIUM, Strain/Indicator: TA98, Metabolic Activation: HAMSTER, LIVER, S-9, AROCLOR 1254 (10 OR 30%), Method: PREINCUBATION
  mutagenic call: inactive; negative
[7]
  mutagenic call: inactive; negative
Test System: AMES SALMONELLA TYPHIMURIUM, Strain/Indicator: TA98, Metabolic Activation: RAT, LIVER, S-9, AROCLOR 1254 (10 OR 30%), Method: PREINCUBATION
  mutagenic call: inactive; negative
Test System: AMES SALMONELLA TYPHIMURIUM, Strain/Indicator: TA100, Metabolic Activation: HAMSTER, LIVER, S-9, AROCLOR 1254 (10 OR 30%), Method: PREINCUBATION
  mutagenic call: inactive; negative
Test System: AMES SALMONELLA TYPHIMURIUM, Strain/Indicator: TA100, Metabolic Activation: NONE, Method: PREINCUBATION
  mutagenic call: inactive; negative
Test System: AMES SALMONELLA TYPHIMURIUM, Strain/Indicator: TA100, Metabolic Activation: RAT, LIVER, S-9, AROCLOR 1254 (10 OR 30%), Method: PREINCUBATION
  mutagenic call: inactive; negative
Test System: AMES SALMONELLA TYPHIMURIUM, Strain/Indicator: TA1535, Metabolic Activation: HAMSTER, LIVER, S-9, AROCLOR 1254 (10 OR 30%), Method: PREINCUBATION
  mutagenic call: inactive; negative
Test System: AMES SALMONELLA TYPHIMURIUM, Strain/Indicator: TA1535, Metabolic Activation: NONE, Method: PREINCUBATION
  mutagenic call: inactive; negative
Test System: AMES SALMONELLA TYPHIMURIUM, Strain/Indicator: TA1535, Metabolic Activation: RAT, LIVER, S-9, AROCLOR 1254 (10 OR 30%), Method: PREINCUBATION
  mutagenic call: inactive; negative

## Cn1cnc2c1c(=O)[nH]c(=O)n2C
Test System: AMES SALMONELLA TYPHIMURIUM, Strain/Indicator: TA97A, Metabolic Activation: NONE, Method: STANDARD PLATE
  mutagenic call: inactive; negative
Test System: AMES SALMONELLA TYPHIMURIUM, Strain/Indicator: TA97A, Metabolic Activation: RAT LIVER S-9, Method: STANDARD PLATE
  mutagenic call: inactive; negative
[5]
  mutagenic call: inactive; negative
[1]
  mutagenic call: inactive; negative
[6]
  mutagenic call: inactive; negative
Test System: AMES SALMONELLA TYPHIMURIUM, Strain/Indicator: TA100, Metabolic Activation: RAT LIVER S-9, Method: STANDARD PLATE
  mutagenic call: inactive; negative
[2]
  mutagenic call: inactive; negative
Test System: AMES SALMONELLA TYPHIMURIUM, Strain/Indicator: TA102, Metabolic Activation: NONE, Method: STANDARD PLATE
  mutagenic call: inactive; negative
Test System: AMES SALMONELLA TYPHIMURIUM, Strain/Indicator: TA102, Metabolic Activation: RAT LIVER S-9, Method: STANDARD PLATE
  mutagenic call: inactive; negative
Test System: AMES SALMONELLA TYPHIMURIUM, Strain/Indicator: TA104, Metabolic Activation: NONE, Method: STANDARD PLATE
  mutagenic call: inactive; negative
Test System: AMES SALMONELLA TYPHIMURIUM, Strain/Indicator: TA104, Metabolic Activation: RAT LIVER S-9, Method: STANDARD PLATE
  mutagenic call: inactive; negative
Test System: AMES SALMONELLA TYPHIMURIUM, Strain/Indicator: TA1535, Metabolic Activation: NONE, Method: STANDARD PLATE
  mutagenic call: inactive; negative
[3]
  mutagenic call: inactive; negative
Test System: AMES SALMONELLA TYPHIMURIUM, Strain/Indicator: TA1537, Metabolic Activation: NONE, Method: STANDARD PLATE
  mutagenic call: inactive; negative
Test System: AMES SALMONELLA TYPHIMURIUM, Strain/Indicator: TA1537, Metabolic Activation: RAT, LIVER, S-9, AROCLOR 1254, Method: STANDARD PLATE
  mutagenic call: inactive; negative
Test System: AMES SALMONELLA TYPHIMURIUM, Strain/Indicator: TA1538, Metabolic Activation: NONE, Method: STANDARD PLATE
  mutagenic call: inactive; negative
[4]
  mutagenic call: inactive; negative
Test System: MOUSE LYMPHOMA, Strain/Indicator: L5178Y (TK+/TK-), Metabolic Activation: NONE, Method: SUSPENSION/PLATE
  mutagenic call: active; positive
Test System: MOUSE LYMPHOMA, Strain/Indicator: L5178Y (TK+/TK-), Metabolic Activation: RAT, LIVER, S-9, AROCLOR 1254, Method: STANDARD PLATE
  mutagenic call: active; positive

## Cc1cccc2c1c([N+](=O)[O-])cc[n+]2[O-]
Test System: UDS RODENT PRIMARY CELLS, Strain/Indicator: THY INCORP (NON-S-PHASE), Metabolic Activation: NONE, Method: AUTORADIOGRAPHY
  mutagenic call: active; positive

## O=C1NC(=O)c2ccccc21
Test System: Ames Salmonella typhimurium, Strain/Indicator: TA98, Metabolic Activation: None, Method: Preincubation
  mutagenic call: inactive; negative
Test System: Ames Salmonella typhimurium, Strain/Indicator: TA98, Metabolic Activation: Rat, Liver, S-9, Phenobarbital and 5,6-benzoflavone, Method: Preincubation
  mutagenic call: inactive; negative
Test System: Ames Salmonella typhimurium, Strain/Indicator: TA100, Metabolic Activation: None, Method: Preincubation
  mutagenic call: inactive; negative
Test System: Ames Salmonella typhimurium, Strain/Indicator: TA100, Metabolic Activation: Rat, Liver, S-9, Phenobarbital and 5,6-benzoflavone, Method: Preincubation
  mutagenic call: inactive; negative
Test System: Ames Salmonella typhimurium, Strain/Indicator: TA1535, Metabolic Activation: None, Method: Preincubation
  mutagenic call: inactive; negative
Test System: Ames Salmonella typhimurium, Strain/Indicator: TA1535, Metabolic Activation: Rat, Liver, S-9, Phenobarbital and 5,6-benzoflavone, Method: Preincubation
  mutagenic call: inactive; negative
Test System: Ames Salmonella typhimurium, Strain/Indicator: TA1537, Metabolic Activation: None, Method: Preincubation
  mutagenic call: inactive; negative
Test System: Ames Salmonella typhimurium, Strain/Indicator: TA1537, Metabolic Activation: Rat, Liver, S-9, Phenobarbital and 5,6-benzoflavone, Method: Preincubation
  mutagenic call: inactive; negative
Test System: E. coli, Strain/Indicator: WP2uvrA/pKM101, Metabolic Activation: None, Method: Preincubation
  mutagenic call: inactive; negative
Test System: E. coli, Strain/Indicator: WP2uvrA/pKM101, Metabolic Activation: Rat, Liver, S-9, Phenobarbital and 5,6-benzoflavone, Method: Preincubation
  mutagenic call: inactive; negative

## O=[N+]([O-])c1ccc2nc3cc([N+](=O)[O-])ccc3nc2c1
Test System: AMES SALMONELLA TYPHIMURIUM, Strain/Indicator: TA98(NR), Metabolic Activation: NONE, Method: PREINCUBATION
  mutagenic call: active; positive
[7]
  mutagenic call: active; positive
